What was measured:
[1] = design: method as in PMID 31876113; conditions: carboxylic acid form (α-carboxylate protonated by Cys181); cited from earlier work
[2] = target: T1, H. pylori glutamate racemase (GR) (Helicobacter pylori, UniProt Q9ZLT0); experiment: Surface plasmon resonance (SPR) binding to immobilized GR; conditions: 1:1 Langmuir binding model, absence of substrate D-Glu, 25 °C, 500-7.81 µM dilution series
T1 construct: made in house; host or cells: E. coli BL21 (DE3) pLysS, co-expressed with GroEL/ES
Method: We first evaluated the binding affinity of these compounds to H. pylori GR by Surface Plasmon Resonance (SPR). A combination of amine coupling and HisCapture was used to immobilize the protein on the surface of the SPR biosensor. Compounds were injected onto the sensor in increasing concentrations using a dilution series ranging from 500 µM to 7.81 µM (7 concentrations).
Experiments were performed using a SensiQ Pioneer SPR. The biosensor chip was first equilibrated with SPR running buffer (50 mM Tris-HCl, 100 mM NaCl, TCEP, 1% v/v TWEEN, pH 8.0), then the surface of the biosensor chip was seasoned by injecting 200 μL 50 mM NaOH at 40 μL/min, 200 μL 0.1% v/v SDS at 40 μL/min, and 200 μL 10 mM HCl at 40 μL/min in the test and reference biosensor chip flow channels. This process of seasoning was repeated twice. All buffers and solutions were filter sterilized with 0.22-μm buffer filters before using on the SPR instrument. After seasoning, the lines were primed three times with SPR buffer. […]
H. pylori GR was immobilized to the biosensor using a HisCapture couple method detailed above. […] All sensograms were analyzed using the program Qdat (2.6.3.0) and it fitted to a model of simple binding of 1:1 Langmuir binding model for all virtual hits. […]

[3] = target: T1, H. pylori glutamate racemase (GR); experiment: Coupled-enzyme assay (L-glutamate dehydrogenase/diaphorase) of D- to L-glutamate racemization; type: biochemical; conditions: 1.25 mM D-Glu, 2 µM GR, 50 mM TRIS pH 8, 5% DMSO; mean ± SE n = 3 for NP-020560 and Compound A, other hits single repeat
Method: The D- to L-glutamate racemization activities of H. pylori GR was assayed through a previously established coupled-enzyme method, utilizing L-glutamate dehydrogenase and diaphorase[40]. […] The assay consists of 1.25 mM D-Glu, 2.51 mM ADP, 5 mM NAD, 0.506 mM INT, 5 Units of L-GDH, 0.4 units of diaphorase and 2 µM GR in 50 mM TRIS, pH = 8. Compound stocks solutions of varying concentrations (100 µM–50 mM) were made in DMSO and introduced in the assay vials. The final DMSO concentration after addition of compounds in the assay was 5% v/v. […] Absorption for the reduced iodonitrotetrazolium was collected by measuring absorbance at 500 nm at 1 min interval for 60 min on Cary 300 UV-VIS Spectrophotometer from Varian (Palo Alto, CA). Absorbance for each compound concentration at every time point were normalized to absorbance for blank, followed by calculating slopes for each concentration. The calculated slopes with the respective log (inhibitor concertation) were fitted to log(inhibitor) vs response (three parameters) model within ‘Nonlinear Regression-Dose Response Inhibition’ in GraphPad Prism version 8.4.3. The program provides output as IC50 and LogIC50 along with respective standard errors, and for ease of expression, we report inhibition data as IC50 (mean ± SE).

H. pylori GR = tested on: H. pylori GR; design: method as in earlier work; conditions: ref 8 (Lundqvist et al.); cited from earlier work

T1 sequence (Q9ZLT0 whole entry): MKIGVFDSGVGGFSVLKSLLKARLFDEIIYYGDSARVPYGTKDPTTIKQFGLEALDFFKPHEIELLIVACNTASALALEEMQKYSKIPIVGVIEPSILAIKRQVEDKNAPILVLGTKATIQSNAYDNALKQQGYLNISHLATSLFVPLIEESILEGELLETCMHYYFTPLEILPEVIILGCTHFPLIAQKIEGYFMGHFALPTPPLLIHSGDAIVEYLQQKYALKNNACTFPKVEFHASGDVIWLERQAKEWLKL

## N[C@H](CCC(=O)O)C(=O)O [D-Glu, D-glutamate]
[1]
  pKa of α-carbon of D-Glu substrate: 14.4

## Cc1cc2c(c(-c3c(O)c(C)cc4c3C(=O)c3c(O)cc(O)cc3C4=O)c1O)C(=O)c1c(O)cc(O)cc1C2=O [NP-020560]
[2]
  Kd: 54.7 ± 0.3 µM
[3]
  IC50: 6.6 ± 3.1 µM

## CC(C)Cn1c(=O)n(C)c(=O)c2c(-c3ccncc3)n(Cc3cccc4ccccc34)nc21 [Compound A]
H. pylori GR
  IC50: 5 µM

Reference: PMC9169614, “Decrypting a cryptic allosteric pocket in H. pylori glutamate racemase” (Communications Chemistry, 2021)
